Reference: ChEMBL document CHEMBL4311961, “Inhaled Janus Kinase (JAK) inhibitors for the treatment of asthma” (Bioorg Med Chem Lett, 2019)
≈ marks a conversion by molar mass, not a printed value.

Assays:
[1] = Apparent permeability from apical to basolateral side in MDCK cells; assay type: ADME, cell-based, Canis lupus familiaris; conditions: dog
[2] = Kinetic solubility of the compound at pH 7.4; assay type: physicochemical; conditions: buffer, read-out: Kinetic_solubility
[3] = molecular target: Janus Kinase (JAK) (Homo sapiens) (UniProt P52333+P23458+O60674+P29597)
Description: Binding affinity to JAK in human PBMC assessed as half life measured after compound washout was out

Mus musculus = assay: In vivo inhibition of IL13 induced STAT6 phosphorylation in mouse lung administered as i.t dose relative to ocntrol; assay type: functional
[4] = Dissociation constant, pKa of compound; assay type: physicochemical
Rattus norvegicus [5] = assay: In vivo inhibition of eosinophils in rat bronchoalveolar lavage fluid at 0.6 ug/kg administered as dry powder inhalation relative to control; assay type: functional; conditions: inhaled or nasal
Rattus norvegicus [6] = assay: In vivo inhibition of eosinophils in rat bronchoalveolar lavage fluid at 4.76 ug/kg administered as dry powder inhalation relative to control; assay type: functional; conditions: inhaled or nasal

CN(CCC#N)C1CCN(C(=O)Cn2cc(NC(=O)c3cnn4cccnc34)c(-c3cc(Cl)ccc3OC(F)F)n2)CC1
Papp A→B [1]: 2.7 ×10⁻⁶ cm/s
solubility kinetic [2]: 34 µM (≈ 20.8 µg/mL)

CCc1cc(O)c(F)cc1-c1ccc2c(-c3nc4c([nH]3)CCN(C(=O)c3cnc(N5CCCCC5)cn3)C4)n[nH]c2c1
T1/2 [3]: 9 h

CCc1cc(O)c(F)cc1-c1ccc2c(-c3nc4c([nH]3)CCN(C3CCN(C)CC3)C4)n[nH]c2c1
inhibition (INH) (Mus musculus): 60%
pKa [4]: 10.5

COC[C@H](C(=O)Nc1cccc2c(-c3nc(Nc4cccc(S(C)(=O)=O)c4F)ncc3F)c[nH]c12)N1CCN(C)CC1 [LONDAMOCITINIB]
inhibition in vivo at 0.0006 mg/kg (Rattus norvegicus [5]): 68%
inhibition in vivo at 0.00476 mg/kg (Rattus norvegicus [6]): 61%
